# Assay results taken from patent US20070027201A1 (Wyeth, priority 2005, published 2007).
# Target: T1, progesterone receptor (Homo sapiens, UniProt P06401)
# T1 sequence (P06401 1-933): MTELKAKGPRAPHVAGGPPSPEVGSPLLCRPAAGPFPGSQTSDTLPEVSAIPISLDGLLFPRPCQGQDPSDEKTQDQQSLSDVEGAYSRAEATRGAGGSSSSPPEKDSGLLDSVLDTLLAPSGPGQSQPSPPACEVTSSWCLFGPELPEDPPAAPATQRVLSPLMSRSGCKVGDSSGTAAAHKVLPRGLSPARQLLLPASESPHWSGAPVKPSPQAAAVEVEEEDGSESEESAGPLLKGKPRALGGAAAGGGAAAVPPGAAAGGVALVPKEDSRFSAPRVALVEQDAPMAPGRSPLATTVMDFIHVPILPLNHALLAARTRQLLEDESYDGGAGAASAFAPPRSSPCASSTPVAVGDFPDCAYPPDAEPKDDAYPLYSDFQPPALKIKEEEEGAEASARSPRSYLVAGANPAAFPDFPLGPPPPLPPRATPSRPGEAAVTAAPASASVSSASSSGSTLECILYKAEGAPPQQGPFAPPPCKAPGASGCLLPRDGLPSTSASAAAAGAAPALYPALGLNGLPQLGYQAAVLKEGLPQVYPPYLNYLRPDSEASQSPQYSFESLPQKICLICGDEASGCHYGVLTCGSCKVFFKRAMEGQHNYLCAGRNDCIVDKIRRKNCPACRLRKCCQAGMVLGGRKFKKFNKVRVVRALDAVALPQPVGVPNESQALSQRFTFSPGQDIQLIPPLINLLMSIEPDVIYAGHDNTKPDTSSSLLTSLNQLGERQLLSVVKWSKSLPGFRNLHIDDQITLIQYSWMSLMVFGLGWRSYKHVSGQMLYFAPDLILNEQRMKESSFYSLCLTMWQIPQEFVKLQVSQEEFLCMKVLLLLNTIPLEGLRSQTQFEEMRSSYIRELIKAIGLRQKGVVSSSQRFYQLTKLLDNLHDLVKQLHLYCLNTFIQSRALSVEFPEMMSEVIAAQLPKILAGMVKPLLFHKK
# Experiment: T47D alkaline phosphatase assay for progesterone receptor modulator (antagonist) activity
# Type: cell-based
# Parameters: endogenous in cells; host or cells: T47D cells
# Conditions: T47D cells
# Method: An assay was performed to identify compounds having progesterone receptor modulator activity. This assay identifies progestins or antiprogestins by determining a compound's effect on alkaline phosphatase activity in T47D cells.
# Culture medium: DMEM:F12 (1:1) (GIBCO, BRL) supplemented with 5% (v/v) charcoal stripped fetal bovine serum (not heat-inactivated), 100 U/mL penicillin, 100 μg/mL streptomycin, and 2 mM the GlutaMax® reagent (GIBCO, BRL).
# Alkaline phosphatase assay buffer: • I. 0.1M Tris-HCl, pH 9.8, containing 0.2% the Triton™ X-100 reagent • II. 0.1M Tris-HCl, pH 9.8, containing 4 mM p-nitrophenyl phosphate (Sigma).
# Frozen T47D cells are thawed in a 37° C. water bath and diluted to 280,000 cells/mL in culture medium. To each well in a 96-well plate (Falcon, Becton Dickinson Labware), 180 μL of diluted cell suspension is added.
# Twenty μL of reference or test compounds diluted in the culture medium is then added to each well. When testing for progestin antagonist activity, reference antiprogestins or test compounds are added in the presence of 1 nM progesterone. The cells are incubated at 37° C. in a 5% CO2/humidified atmosphere for 24 hours.
# For high throughput screening, one concentration of each compound will be tested at 0.3 μg/mL. Based on an average molecular weight of 300 g/mol for the compounds in the library, the concentration is approximately 1 μM. Subsequently, active compounds will be tested in dose response assays to determine EC50 and IC50.
# At the end of treatment, the medium is removed from the plate. Fifty μL of assay buffer I is added to each well. The plates are shaken in a titer plate shaker for 15 minutes. Then 150 μL of assay buffer II is added to each well. Optical density measurements are taken at 5 minute intervals for 30 minutes at a test wavelength of 405 nm.
# Analysis of dose-response data. For reference and test compounds, a dose response curve is generated for dose (x-axis) vs. the rate of enzyme reaction (slope) (y-axis). Square root-transformed data are used for analysis of variance and nonlinear dose response curve fitting for both agonist and antagonist modes. Huber weighting is used to down-weight the effects of outliers. EC50 or IC50 values are calculated from the retransformed values. The JMP® software (SAS Institute, Inc.) is used for both one-way analysis of variance and non-linear dose response analysis in both single dose and dose response studies.
# Progesterone and trimegestone are reference progestins and RU486 is the reference antiprogestin. All reference compounds are run in full dose response curves and the EC50 and IC50 values are calculated.
# In the table provided above, the IC50 values show the relative progesterone receptor antagonist activity in this assay. Lower numbers are indicative of higher potency, i.e., greater PR antagonist activity. Further, the assay has a standard deviation of about ±6.
row,SMILES,Active Dose
1,"CCS(=O)(=O)Nc1ccc(-c2ccc(C#N)n2CCCc2ccccc2)cc1 [Example 71, N-{4-[5-cyano-1-(3-phenylpropyl)-1H-pyrrol-2-yl]phenyl}ethanesulfonamide]",3000 nM
2,"Cn1c(C#N)ccc1-c1ccc(NS(C)(=O)=O)c(C#N)c1 [Example 77, N-[2-cyano-4-(5-cyano-1-methyl-1H-pyrrol-2-yl)phenyl]methanesulfonamide]",3000 nM
3,"Cn1c(C#N)ccc1-c1ccc(NS(C)(=O)=O)cc1F [Example 40, N-[4-(5-cyano-1-methyl-1H-pyrrol-2-yl)-3-fluorophenyl]methanesulfonamide]",10000 nM

# Same assay, conditions: T47D cells, antagonist mode in the presence of 1 nM progesterone, 24 hours
row,SMILES,IC50
1,"CCCS(=O)(=O)Nc1ccc(-c2ccc(C#N)n2C)c(C(F)(F)F)c1 [Example 54, N-[4-(5-cyano-1-methyl-1H-pyrrol-2-yl)-3-(trifluoromethyl)phenyl]propane-1-sulfonamide]",9.4 nM
2,"CCc1cc(-c2ccc(C#N)n2C)ccc1NC#N [Example 30, [4-(5-cyano-1-methyl-1H-pyrrol-2-yl)-2-ethylphenyl]cyanamide]",~300 nM
3,"CCS(=O)(=O)Nc1ccc(-c2ccc(C#N)n2C)cc1F [Example 27, N-[4-(5-cyano-1-methyl-1H-pyrrol-2-yl)-2-fluorophenyl]ethane-sulfonamide]",29.9 nM
4,"CC(C)c1ccc(S(=O)(=O)Nc2ccc(-c3ccc(C#N)n3C)cc2)cc1 [Example 20, N-[4-(5-cyano-1-methyl-1H-pyrrol-2-yl)phenyl]-4-isopropylbenzenesulfonamide]",~3000 nM
5,"Cn1c(C#N)ccc1-c1ccc(NC#N)c(F)c1 [Example 34, [4-(5-cyano-1-methyl-1H-pyrrol-2-yl)-2-fluorophenyl]cyanamide]",670 nM
6,"Cn1c(C#N)ccc1-c1ccc(NS(=O)(=O)CC(F)(F)F)cc1 [Example 19, N-[4-(5-cyano-1-methyl-1H-pyrrol-2-yl)phenyl]-2,2,2-trifluoroethanesulfonamide]",58.4 nM
7,"CCCS(=O)(=O)Nc1cc(F)c(-c2ccc(C#N)n2C)c(F)c1 [Example 81, N-[4-(5-cyano-1-methyl-1H-pyrrol-2-yl)-3,5-difluorophenyl]propane-1-sulfonamide]",6.2 nM
8,"Cn1c(C#N)ccc1-c1ccc(N2CCCS2(=O)=O)cc1 [Example 57, 5-[4-(1,1-dioxidoisothiazolidin-2-yl)phenyl]-1-methyl-1H-pyrrole-2-carbonitrile]",180 nM
9,"CCS(=O)(=O)Nc1ccc(-c2ccc(C#N)[nH]2)cc1 [Example 65, N-[4-(5-cyano-1H-pyrrol-2-yl)phenyl]ethanesulfonamide]",68.6 nM
10,"CC(C)S(=O)(=O)Nc1ccc(-c2ccc(C#N)n2C)cc1 [Example 23, N-[4-(5-cyano-1-methyl-1H-pyrrol-2-yl)phenyl]propane-2-sulfonamide]",1.5 nM
11,"CC(C)CC(=O)Nc1ccc(-c2ccc(C#N)n2C)cc1 [Example 4, N-[4-(5-cyano-1-methyl-1H-pyrrol-2-yl)phenyl]-3-methylbutanamide]",304 nM
12,"Cn1c(C#N)ccc1-c1ccc(NS(C)(=O)=O)cc1F [Example 40, N-[4-(5-cyano-1-methyl-1H-pyrrol-2-yl)-3-fluorophenyl]methanesulfonamide]",18.3 nM
13,"Cn1c(C#N)ccc1-c1ccc(NS(C)(=O)=O)c(F)c1 [Example 26, N-[4-(5-cyano-1-methyl-1H-pyrrol-2-yl)-2-fluorophenyl]methane-sulfonamide]",28.9 nM
14,"Cn1c(C#N)ccc1-c1ccc(NS(C)(=O)=O)c(OC(F)(F)F)c1 [Example 59, N-[4-(5-cyano-1-methyl-1H-pyrrol-2-yl)-2-(trifluoromethoxy)phenyl]methane-sulfonamide]",32.2 nM
15,"Cn1c(C#N)ccc1-c1ccc(N(S(C)(=O)=O)S(C)(=O)=O)cc1 [Example 17, N-[4-(5-cyano-1-methyl-1H-pyrrol-2-yl)phenyl]-N-(methylsulfonyl)methane sulfonamide]",~300 nM
16,"CCCS(=O)(=O)Nc1ccc(-c2ccc(C#N)n2C)cc1 [Example 16, N-[4-(5-cyano-1-methyl-1H-pyrrol-2-yl)phenyl]propane-1-sulfonamide]",9.8 nM

# More lines, now with the values ahead:
row,IC50,SMILES
1,~3000 nM,"Cc1ccc(S(=O)(=O)Nc2ccc(-c3ccc(C#N)n3C)cc2)cc1 [Example 22, N-[4-(5-cyano-1-methyl-1H-pyrrol-2-yl)phenyl]-4-methylbenzenesulfonamide]"
2,600 nM,"C=CCn1c(C#N)ccc1-c1ccc(NS(=O)(=O)CC)cc1 [Example 69, N-[4-(1-allyl-5-cyano-1H-pyrrol-2-yl)phenyl]ethanesulfonamide]"
3,325 nM,"Cn1c(C#N)ccc1-c1ccc(NC(=O)C2CCCCC2)cc1 [Example 11, N-[4-(5-cyano-1-methyl-1H-pyrrol-2-yl)phenyl]cyclohexane-carboxamide]"
4,266 nM,"CCOC(=O)Nc1ccc(-c2ccc(C#N)n2C)cc1 [Example 13, Ethyl[4-(5-cyano-1-methyl-1H-pyrrol-2-yl)phenyl]carbamate]"
5,198 nM,"Cn1c(C#N)ccc1-c1ccc(NS(C)(=O)=O)cc1C#N [Example 74, N-[3-cyano-4-(5-cyano-1-methyl-1H-pyrrol-2-yl)phenyl]methanesulfonamide]"
6,168 nM,"CC(C)C(=O)Nc1ccc(-c2ccc(C#N)n2C)cc1 [Example 5, N-[4-(5-cyano-1-methyl-1H-pyrrol-2-yl)phenyl]-2-methylpropanamide]"
7,126 nM,"Cn1c(C#N)ccc1-c1ccc(NC(=O)c2ccco2)cc1 [Example 3, N-[4-(5-cyano-1-methyl-1H-pyrrol-2-yl)phenyl]-2-furamide]"
8,97.2 nM,"C=C(C)C(=O)Nc1ccc(-c2ccc(C#N)n2C)cc1 [Example 12, N-[4-(5-cyano-1-methyl-1H-pyrrol-2-yl)phenyl]-2-methylacrylamide]"
9,90.5 nM,"Cn1c(C#N)ccc1-c1ccc(NC(=O)c2ccccc2)cc1 [Example 9, N-[4-(5-cyano-1-methyl-1H-pyrrol-2-yl)phenyl]benzamide]"
10,83.9 nM,"COc1cc(NC#N)ccc1-c1ccc(C#N)n1C [Example 36, [4-(5-cyano-1-methyl-1H-pyrrol-2-yl)-3-methoxyphenyl]cyanamide]"
11,54.1 nM,"Cn1c(C#N)ccc1-c1ccc(NC#N)cc1 [Example 28, [4-(5-cyano-1-methyl-1H-pyrrol-2-yl)-phenyl]cyanamide]"
12,53.7 nM,"CCCCS(=O)(=O)Nc1ccc(-c2ccc(C#N)n2C)c(C(F)(F)F)c1 [Example 55, N-[4-(5-cyano-1-methyl-1H-pyrrol-2-yl)-3-(trifluoromethyl)phenyl]butane-1-sulfonamide]"
13,40.7 nM,"CCCS(=O)(=O)Nc1ccc(-c2ccc(C#N)n2C)cc1OC(F)(F)F [Example 61, N-[4-(5-cyano-1-methyl-1H-pyrrol-2-yl)-2-(trifluoromethoxy)phenyl]propane-1-sulfonamide]"
14,~30 nM,"Cn1c(C#N)ccc1-c1ccc(NS(=O)(=O)c2ccccc2)cc1 [Example 21, N-[4-(5-cyano-1-methyl-1H-pyrrol-2-yl)phenyl]benzenesulfonamide]"

# Same assay, conditions: T47D cells, at Active Dose 3000 nM
row,SMILES,inhibition at 3 µM
1,"CCS(=O)(=O)Nc1ccc(-c2ccc(C#N)n2CCCc2ccccc2)cc1 [Example 71, N-{4-[5-cyano-1-(3-phenylpropyl)-1H-pyrrol-2-yl]phenyl}ethanesulfonamide]",15%
2,"Cn1c(C#N)ccc1-c1ccc(NS(C)(=O)=O)c(C#N)c1 [Example 77, N-[2-cyano-4-(5-cyano-1-methyl-1H-pyrrol-2-yl)phenyl]methanesulfonamide]",50%

# Same assay, conditions: T47D cells, in the presence of 1 nM progesterone
row,SMILES,Antagonist Efficacy
1,"CCS(=O)(=O)Nc1ccc(-c2ccc(C#N)[nH]2)cc1 [Example 65, N-[4-(5-cyano-1H-pyrrol-2-yl)phenyl]ethanesulfonamide]",85%
